Results: PMC4764201, “High Throughput Screen for Escherichia coli Twin Arginine Translocation (Tat) Inhibitors” (PLoS ONE, 2016)

Columns and labels:
[1] = test system: E. coli Tat machinery (IMVs containing overproduced TatABC); test: In vitro Tat transport assay of pre-SufI into IMVs, ATP as energy source; type: biochemical, Escherichia coli; conditions: hit compound 100 μM
Method: (§1) To directly test for inhibition of Tat transport, a gel-based in vitro Tat transport assay was performed using pre-SufI, an authentic Tat precursor protein [7]. In short, this assay consists of incubating a Tat substrate and a Δψ-generating energy source with inverted membrane vesicles (IMVs) containing overproduced TatABC, digesting remaining external protein with a protease, and then analyzing via SDS-PAGE. This assay was run twice using NADH and ATP (if warranted) as energy sources to generate the necessary Δψ. NADH generates a Δψ using respiratory proteins (i.e., the NADH dehydrogenase and cytochrome bo3 ubiquinol oxidase complexes) and ATP generates a Δψ by reversal of ATP synthase. A true Tat inhibitor would survive both assays. In contrast, a respiration inhibitor is expected to reduce Tat transport when only one of the two energy sources is used (except for an ionophore).
(§2) Fig 8 Effect of Hits from the Local HTS on In Vitro Tat Transport. (A) Tat transport assays of pre-SufI using NADH to generate a Δψ. […] Samples were treated with the protease proteinase K, run on SDS-PAGE, and analyzed by in-gel fluorescence imaging. Assays were run in duplicate. Band intensity corresponds to the amount of protein transported into the IMV lumen. The following 7 compounds survived this screen: 1^JS, 51^JS, 55^JS, 111^JS, 181^JS, 202^JS, and 140^JS (boxed in red). (B) Tat transport assays of pre-SufI using ATP to generate a Δψ. All 7 compounds surviving the screen in (A) were tested using a Tat transport assay performed identically to those in (A) except that ATP (1 mM) was used in place of NADH. […]
(§3) Isolation of inverted membrane vesicles (IMVs), Western blot analyses and purification of pre-SufI-IAC were performed as described previously. […] The presence of a Δψ was determined by measuring oxonol VI fluorescence in presence of Tat^+ IMVs (A280 = 0.5), as described previously, except that the translocation buffer lacked BSA. Steady-state fluorescence spectra and fluorescence intensities of whole cells producing mCherry proteins were determined with an SLM-8100 spectrofluorometer.

E. coli MC4100(DE3) = test: Cell growth (optical density A500) under Tat++ conditions; type: cell-based, Escherichia coli; conditions: Tat++ conditions, concentration-dependent, 8 h 25°C
Method: Fig 4 Effect of Oxidative Phosphorylation Inhibitors on In Vivo Tat Transport and Sensitivity of Fluorescence Detection on Plates. (A) Effect of oxidative phosphorylation inhibitors on cell growth and mCherry fluorescence under Tat^++ conditions. Cells producing spTorA-mCherry-SsrA under Tat^++ conditions were grown at 25°C for 8 h in the presence of the indicated respiratory inhibitors. After overnight incubation at 4°C, optical densities (upper panel; A500) and total mCherry cellular fluorescence intensities (lower panel; EX = 587 nm, EM = 610 nm) were measured (n = 3). Nigericin (N; 50 μM) is a H^+/K^+ exchanger, which collapses the ΔpH gradient. Valinomycin (V; 50 μM) is a K^+ ionophore, which collapses the Δψ. NaSCN (SCN; 50 mM) collapses the Δψ. NaN3 (N3; 0.1%) inhibits the cytochrome bo3 terminal oxidase. (B) Effect of NaSCN concentration on cell density and total mCherry cellular fluorescence. Measurements were made after incubating cells overnight at 4°C (n = 3). (C) Calibration and sensitivity of mCherry fluorescence detection in 384-well plates. Overnight cultures of E. coli MC4100(DE3) cells were diluted to A500 = 0.25, 0.2, 0.15, 0.10 and 0.05, and aliquoted into 384-well plates. The spTorA-mCherry-SsrA and TatABC proteins were induced together or neither were induced, as indicated. The cells were incubated at 25°C for 8 hours, and stored overnight at 4°C. Optical densities (upper panel) and mCherry fluorescence intensities (lower panel) were determined with a BMG Polarstar Omega plate reader (at 500 nm for absorbance; EX = 584 nm, EM = 620 nm for fluorescence). For comparison, the absorbance and fluorescence intensities from purified spTorA-mCherry-H6 (30, 25, 20, 15, 10 and 5 nM) are also shown (n = 3 plates, 16 wells/plate). (D) Simulated hits on 384-well plates. Using the approach described in (C), cells (A500 = 0.15) were grown on plates under the indicated conditions, and then fluorescence intensities were measured. spTorA-mCherry-SsrA was used for conditions II-IV. spTorA-mCherry-H6 was used for a minus SsrA control (I; 100%). The SsrA tag decreased the mCherry fluorescence intensity (II; 63±14%), consistent with a decrease in cytoplasmic mCherry concentration due to SsrA-dependent degradation.
The plates containing cells and dispersed test compounds were grown with shaking (200 rpm) at 25°C for 8 h. Plates were individually mounted, not stacked, on a hollow plastic platform, allowing adequate air circulation. Following the 8 h incubation, plates were transferred to 4°C for 16 h. Each plate was covered with an empty plate to prevent condensation on the lid. […] Following the incubation, plates were read using a BMG Polarstar Omega plate reader (BMG Labtech, Ortenberg, Germany) to determine optical densities (A500) and mCherry fluorescence intensities (EX = 584 nm, EM = 620 nm).
Supplementary file pone.0149659.s005.tiff: S5 Fig Effect of P. aeruginosa Tat Inhibitors on E. coli Cell Growth and Tat Transport. The concentration-dependent effects of Bay 11–7082 (A) and N-phenylmaleimide (B) on bacterial growth (black) and in vivo Tat transport of spTorA-mCherry-SsrA (red) was determined under Tat^++ conditions (top). An overnight culture of MC4100(DE3) (pTorA-mCherry-SsrA, pTatABC-Duet1) was diluted 1:50 in 10 mL fresh LB broth with appropriate antibiotics and dispensed (2 mL) into 5 tubes, and growth was continued at 37°C with shaking at 200 rpm until A500 ≈ 0.5. The indicated concentrations of the two compounds were added, and the expression of spTorA-mCherry-SsrA and TatABC were induced. Cultures were grown for another 8 h at 25°C. Cell growth was assayed by A500, and cells (1 mL, A500 = 1.0) were fractionated into cytoplasmic (C) and periplasmic (P) fractions as described. Transport of spTorA-mCherry-SsrA was assayed by in-gel fluorescence of mCherry (upper gels) and Western blot analyses (middle gels). […]

[2] = biological target: E. coli Tat machinery (IMVs containing overproduced TatABC) (Escherichia coli, UniProt P69423+P69425+P69428); test: In vitro Tat transport assay of pre-SufI into IMVs, ATP as energy source; type: biochemical; conditions: hit compound 100 μM
Method: as §1, §2, §3

Chain of E. coli Tat machinery (IMVs containing overproduced TatABC) (Escherichia coli, UniProt P69423+P69425+P69428) (P69423 2-258): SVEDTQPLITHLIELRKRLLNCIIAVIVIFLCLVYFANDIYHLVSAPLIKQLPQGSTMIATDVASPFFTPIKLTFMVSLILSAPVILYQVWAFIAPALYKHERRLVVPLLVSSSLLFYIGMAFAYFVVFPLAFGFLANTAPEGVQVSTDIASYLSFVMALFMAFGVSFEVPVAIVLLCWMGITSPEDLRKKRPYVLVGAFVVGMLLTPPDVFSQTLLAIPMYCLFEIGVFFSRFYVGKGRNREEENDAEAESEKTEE
Chain of E. coli Tat machinery (IMVs containing overproduced TatABC) (Escherichia coli, UniProt P69423+P69425+P69428) (P69425 whole entry): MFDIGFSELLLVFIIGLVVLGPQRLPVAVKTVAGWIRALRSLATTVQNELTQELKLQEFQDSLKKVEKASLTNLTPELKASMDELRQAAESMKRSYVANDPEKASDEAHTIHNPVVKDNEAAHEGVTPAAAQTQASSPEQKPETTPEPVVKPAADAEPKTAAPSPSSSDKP
Chain of E. coli Tat machinery (IMVs containing overproduced TatABC) (Escherichia coli, UniProt P69423+P69425+P69428) (P69428 whole entry): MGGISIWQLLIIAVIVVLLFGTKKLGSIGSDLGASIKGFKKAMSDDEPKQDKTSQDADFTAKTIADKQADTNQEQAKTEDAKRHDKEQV

| SMILES | effect on E. coli growth (E. coli MC4100(DE3)) | other results |
| --- | --- | --- |
| Oc1cc(Cl)ccc1Oc1ccc(Cl)cc1Cl [Compound 18^NIH, 5-Chloro-2-(2,4-dichlorophenoxy)phenol] | – | outcome of ATP-dependent in vitro Tat transport screen (survival = visible inhibition of Tat transport) [1]: survived |
| Cc1ccc(S(=O)(=O)/C=C/C#N)cc1 [Bay 11–7082] | inhibited E. coli growth | – |
| N#CC1c2ccccc2-n2nncc2CN1Cc1cc(Cl)cc(Cl)c1 (stereo not shown) [21^NIH, 5-[(3,5-dichlorophenyl)methyl]-4,6-dihydrotriazolo[1,5-a][1, 4]benzodiazepine-6-carbonitrile] | – | outcome of ATP-dependent in vitro Tat transport screen (survival = visible inhibition of Tat transport) [2]: survived |
| O=C1C=CC(=O)N1c1ccccc1 [N-phenylmaleimide] | inhibited E. coli growth | – |
